Results reported in US20080305519A1, “Biochemical method for specific protein labeling” (priority 2006, published 2008).

Columns and labels:
[1] = tested on: semi-purified tubulin/parkin complex; experiment: Biotin Tag Conjugation of Tubulin/Parkin Complex; assay type: biochemical, rat; details: for labeling of tubulin in tubulin/parkin complex (FIG. 8): FIG. 8 lanes 3 and 6; for biotin labeling efficiency of parkin-mediated tubulin modification versus recognition sequence: FIG. 2b, tags 1-6 compared
Protocol: A total of 4 μg semi-purified tubulin/parkin complex and varying concentrations of the biotin tag was incubated at 37° C. for 15 min in 10 μL buffers of 50 mM Tris, 50 mM NaCl, 10 mM MgCl2, 10 μM ATP, pH 7.6. For DTT reduction, 1 μL of 6M DTT was added and the solution was incubated at r.t. for additional 30 min. Reactions were terminated by the additions of 2 μL 6×SDS-PAGE sample buffer containing 100 mM DTT and the mixtures were boiled at 95° C. for 5 min. The biotin-labeled substrates were resolved from the free biotin tags with 8-16% Tris-Glycine SDS-PAGE gel, transferred onto the PVDF membrane using a semi-dry protein transfer apparatus, and detected using the VECTASTAIN ABC-AmP detection system following the manufacturer's protocol. The intensities of protein bands are quantified with the ImageJ program (http://rsb.info.nih.gov/ij/) following the program manual.

[2] = biological target: T1, ubiquitin activating enzyme (E1), rabbit (Oryctolagus cuniculus, UniProt Q29504); experiment: E1-Biotin Tag Conjugation Assay; assay type: biochemical
T1 construct: purchased Boston Biochem E-302
T1 sequence (Q29504 1-1058): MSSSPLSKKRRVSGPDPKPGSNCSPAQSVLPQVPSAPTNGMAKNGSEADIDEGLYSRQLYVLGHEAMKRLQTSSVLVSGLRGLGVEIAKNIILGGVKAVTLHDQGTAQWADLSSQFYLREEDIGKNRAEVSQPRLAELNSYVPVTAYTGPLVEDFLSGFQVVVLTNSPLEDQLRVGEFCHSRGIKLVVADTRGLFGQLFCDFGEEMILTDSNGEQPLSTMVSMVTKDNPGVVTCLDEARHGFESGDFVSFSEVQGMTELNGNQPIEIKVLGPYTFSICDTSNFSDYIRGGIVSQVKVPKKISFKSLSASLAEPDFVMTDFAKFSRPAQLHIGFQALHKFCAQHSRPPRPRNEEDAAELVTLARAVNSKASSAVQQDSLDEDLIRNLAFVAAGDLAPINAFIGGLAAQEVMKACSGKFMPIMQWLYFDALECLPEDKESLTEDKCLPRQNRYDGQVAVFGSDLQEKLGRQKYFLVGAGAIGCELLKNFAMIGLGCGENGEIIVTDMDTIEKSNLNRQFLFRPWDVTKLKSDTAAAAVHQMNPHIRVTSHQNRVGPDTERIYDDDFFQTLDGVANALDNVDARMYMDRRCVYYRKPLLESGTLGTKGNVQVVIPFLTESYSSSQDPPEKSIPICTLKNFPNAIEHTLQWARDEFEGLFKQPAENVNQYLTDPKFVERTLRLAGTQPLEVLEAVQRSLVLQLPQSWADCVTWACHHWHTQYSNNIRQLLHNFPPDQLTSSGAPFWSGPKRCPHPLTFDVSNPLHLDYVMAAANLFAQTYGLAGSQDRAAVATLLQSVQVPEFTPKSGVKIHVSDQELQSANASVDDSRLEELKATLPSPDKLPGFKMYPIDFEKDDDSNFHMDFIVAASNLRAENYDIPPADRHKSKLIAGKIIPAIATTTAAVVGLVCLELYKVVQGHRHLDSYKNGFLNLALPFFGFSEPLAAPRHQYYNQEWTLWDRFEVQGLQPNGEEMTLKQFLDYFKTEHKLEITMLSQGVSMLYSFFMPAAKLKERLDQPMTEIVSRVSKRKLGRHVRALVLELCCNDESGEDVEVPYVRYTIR
Protocol: The E1 enzyme was diluted with 50 mM HEPES buffer, pH 7.6 to derive the 0.45 μM stocks. A total of 90 nM rabbit E1 and varying concentrations of tag 1 was incubated at 37° C. for 5 min in 10 μL buffers of 50 mM Tris, 50 mM NaCl, 10 mM MgCl2, 10 μM ATP, pH 7.6. The reactions were terminated by the additions of 2 μL 6× bromophenol-absent SDS sample buffer and the mixtures were boiled at 85° C. for 2 min. The biotin-labeled E1 thioesters were resolved from the free biotin tags with 8-16% Tris-Glycine SDS-PAGE gel, transferred onto the PVDF membrane using a semi-dry protein transfer apparatus, and detected using the VECTASTAIN ABC-AmP detection system following the manufacturer's protocol. Briefly, the membrane was washed three times for 4 min each in 10 mL 1× casein solution at r.t. with gentle shaking, and then incubated in the 10 mL 1× casein blotting solution containing 20 μL each of reagent A and B from the kit for 10 min. The membrane was washed three times for 4 min each in 10 mL 1× casein solution, followed by equilibration in 10 mL 0.1M Tris buffer, pH 9.5, for 5 min. The excess buffer was removed and the blot surface was incubated in 3 mL DuoLux chemiluminescent substrate for 5 min under subdued light. Briefly rinse the blot in 0.1 M Tris buffer, pH 9.5, and remove the excess buffer by touching the edge of the blot to absorbent paper. The image was obtained by exposing the blot to the Kodak BioMax Light Film.

[3] = biological target: T2, UbCH7 (E2), human recombinant (Homo sapiens, UniProt P68036); experiment: E2-Biotin Tag Conjugation Assay; assay type: biochemical
T2 construct: purchased Boston Biochem E2-640
T2 sequence (P68036 whole entry): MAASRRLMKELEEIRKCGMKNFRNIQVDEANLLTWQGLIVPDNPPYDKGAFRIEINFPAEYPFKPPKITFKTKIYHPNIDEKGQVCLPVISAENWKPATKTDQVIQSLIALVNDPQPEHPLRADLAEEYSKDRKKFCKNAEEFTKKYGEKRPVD
Protocol: The UbCH7 enzyme was diluted with a buffer of 50 mM HEPES, 50 mM NaCl, 10% glycerol, pH 7.6 to derive the 10 μM stocks. […] Reactions were terminated by the additions of 2 μL 6× non-reducing bromophenol-absent SDS-PAGE sample buffer and the mixtures were boiled at 85° C. for 2 min. The biotin-labeled […] were resolved from the free biotin tags with 8-16% Tris-Glycine SDS-PAGE gel, transferred onto the PVDF membrane using a semi-dry protein transfer apparatus, and detected using the VECTASTAIN ABC-AmP detection system following the manufacturer's protocol.

[4] = tested on: Fraction II, rabbit reticulocyte; experiment: Fraction II - Biotin Tag Conjugation Assay; assay type: biochemical; details: ubiquitin-free reticulocyte fraction II containing E1, E2, E3 activities
Protocol: The fraction II from rabbit reticulocyte lysates was cleaned with ImmunoPure immobilized streptavidin beads from Pierce (Rockford, Ill.) to remove non-specific streptavidin-binding proteins following the manufacturer's instruction. An aliquot (11 μg) was then incubated with various amounts of biotin tag in 10 μL reaction buffer (100 mM Tris, 3 mM DTT, 5 mM MgCl2, 2 mM ATP, pH 7.6) at 37° C. for 5 min. The reactions were terminated by adding 2 μL 6×SDS-PAGE sample buffer and the mixtures were boiled at 85° C. for 2 min. The biotin-labeled substrates were resolved from the free biotin tags with 8-16% Tris-Glycine SDS-PAGE gel, transferred onto the PVDF membrane using a semi-dry protein transfer apparatus, and detected using the VECTASTAIN ABC-AmP detection system following the manufacturer's protocol.

| E1 biotin-adduct formation on withdrawal of ATP ([2]; no ATP in reaction buffer, tag 150 μM (FIG. 6)) | extent of tag transfer from E1-1 to E2 ([3]; tag concentration reduced to 50 μM, E1 and E2 present) | activity in E1 adduct formation ([2]; concentrations as high as 450 μM) | Molecule | labeling of proteins in tubulin/parkin complex ([1]; 450 μM) | labeling of tubulin in tubulin/parkin complex (FIG. 8) [1] | formation of E1-biotin tag adduct (E1-1 thioester) ([2]; incubated with E1 for 5 min, non-reducing ATP-supplemented buffer, streptavidin blot) | biotin labeling of E2 in the absence of E1 ([3]; incubation with E2 alone, no E1) | covalent modification of proteins in fraction II extract [4] | concentration range of concentration-dependent biotin labeling of 55 KDa protein (tubulin) ([1]; 10 μM ATP, FIG. 2a) [µM] | biotin labeling efficiency of parkin-mediated tubulin modification versus recognition sequence [1] |
| --- | --- | --- | --- | --- | --- | --- | --- | --- | --- | --- |
| – | – | – | O=C(O)CCCCCNC(=O)CCCC[C@@H]1SC[C@@H]2NC(=O)N[C@@H]21 [long-chain biotin, biotinylaminohexanonic acid, reference compound] | no labeling of any protein | could not label the tubulins | – | – | – | – | – |
| aborted the biotin-adduct formation | undetectable level | – | tag 1: biotin linked through aminohexanoic acid linker to recognition sequence LRLRGG (SEQ ID NO: 1) (HELM PEPTIDE1{[O=C1N[C@H]2[C@H](CS[C@H]2CCCCC(=O)[*:2])N1].[O=C(CCCCCN[*:1])[*:2]].L.R.L.R.G.G}$$$$V2.0; SMILES CC(C)C[C@H](NC(=O)CCCCCNC(=O)CCCC[C@@H]1SC[C@@H]2NC(=O)N[C@@H]21)C(=O)N[C@@H](CCCNC(=N)N)C(=O)N[C@@H](CC(C)C)C(=O)N[C@@H](CCCNC(=N)N)C(=O)NCC(=O)NCC(=O)O) | – | Robust labeling | biotin-containing protein bands with the size matching that of E1 were detected | did not give rise to the biotin-labeled E2 | concentration-dependent covalent modification of a large number of proteins | 17 to 450 | highest labeling efficacy |
| – | – | almost no activity | tag 2: biotin linked through aminohexanoic acid linker to sequence LALRGG (SEQ ID NO: 2) (HELM PEPTIDE1{[O=C1N[C@H]2[C@H](CS[C@H]2CCCCC(=O)[*:2])N1].[O=C(CCCCCN[*:1])[*:2]].L.A.L.R.G.G}$$$$V2.0; SMILES CC(C)C[C@H](NC(=O)CCCCCNC(=O)CCCC[C@@H]1SC[C@@H]2NC(=O)N[C@@H]21)C(=O)N[C@@H](C)C(=O)N[C@@H](CC(C)C)C(=O)N[C@@H](CCCNC(=N)N)C(=O)NCC(=O)NCC(=O)O) | – | – | – | – | – | – | decreased biotin labeling |
